Assay results published in ChEMBL document CHEMBL5512696, “Discovery of a Novel ASM Direct Inhibitor with a 1,5-Diphenyl-pyrazole Scaffold and Its Antidepressant Mechanism of Action” (J Med Chem, 2024).
Calls of active or inactive are those of the source. No cut-off for these calls is given here.

Assays:
[1] = tested on: Mus musculus; experiment: (§1) Antineuroinflammatory activity in ip dosed ICR mouse model of chronic unpredictable mild stress assessed as reduction in TNFalpha level in serum administered once a day for 1 week post 8 week of chronic unpredictable mild stress and measured after 1 week by ELISA; assay type: functional, organism-based; settings: dose 6-12 mg/kg, time 2.0 weeks
[2] = Cmax in male ICR mouse at 10 mg/kg, ip measured upto 480 mins by LC-MS/MS analysis; assay type: ADME, organism-based; settings: in vivo
[3] = Observed MRT (0 to infinity) in male ICR mouse at 10 mg/kg, ip measured upto 480 mins by LC-MS/MS analysis; assay type: ADME, organism-based; settings: in vivo
[4] = Bioavailability in male ICR mouse at 1 mg/kg, iv measured upto 480 mins by LC-MS/MS analysis; assay type: ADME, organism-based; settings: in vivo
[5] = AUC (0 to t) in male ICR mouse at 10 mg/kg, ip measured upto 480 mins by LC-MS/MS analysis; assay type: ADME, organism-based; settings: in vivo
[6] = Observed MRT (0 to infinity) in male ICR mouse at 1 mg/kg, iv measured upto 480 mins by LC-MS/MS analysis; assay type: ADME, organism-based; settings: in vivo
[7] = Neurotoxicity against human SH-SY5Y cells assessed as cell survival rate at 5 to 20 uM by CCK-8 assay relative to control; assay type: toxicity, cell-based; settings: dose 5-20 µM, read-out: Survival
[8] = AUC (0 to infinity) in male ICR mouse at 1 mg/kg, iv measured upto 480 mins by LC-MS/MS analysis; assay type: ADME, organism-based; settings: in vivo, 8 h
[9] = Neurotoxicity against human SH-SY5Y cells assessed as reduction in cell viability at 5 to 20 uM by CCK-8 assay; assay type: toxicity, cell-based; settings: dose 5-20 µM
[10] = Neurotoxicity against human SH-SY5Y cells assessed as reduction in cell viability at 100 uM by CCK-8 assay; assay type: toxicity, cell-based
[11] = AUC (0 to t) in male ICR mouse at 1 mg/kg, iv measured upto 480 mins by LC-MS/MS analysis; assay type: ADME, organism-based; settings: in vivo
[12] = tested on: Mus musculus; experiment: Improvement in depression-like behavior in ip dosed ICR mouse model of chronic unpredictable mild stress assessed as improvement in sugar consumption administered once a day for 10 days post 8 week of chronic unpredictable mild stress by sugar preference test; assay type: functional, organism-based; settings: dose 6-24 mg/kg, time 10.0 day
[13] = tested on: Mus musculus; experiment: (§2) Antidepressant activity in ip dosed ICR mouse model of chronic unpredictable mild stress assessed as downregulation of neuronal apoptosis by measuring reduction in caspase-9 protein level in hippocampus administered once a day for 1 week post 8 week of chronic unpredictable mild stress and measured after 1 week by Western blot analysis; assay type: functional, organism-based; settings: dose 6-24 mg/kg, time 2.0 weeks
[14] = tested on: Mus musculus; experiment: as §2, with “in” for “in ip dosed”, “improvement” for “reduction”, “Bcl-2/Bax ratio” for “caspase-9 protein level”, “hippocampus at 6 to 24 mg/kg, ip” for “hippocampus”; assay type: functional, organism-based; settings: dose 6-24 mg/kg, time 2.0 weeks
[15] = tested on: Mus musculus; experiment: Improvement in depression-like behavior in ICR mouse model of chronic unpredictable mild stress assessed as reduction in immobility time at 6 to 24 mg/kg, ip administered once a day for 10 days post 8 week of chronic unpredictable mild stress by tail suspension test; assay type: functional, organism-based; settings: dose 6-24 mg/kg, time 10.0 day
[16] = tested on: Mus musculus; experiment: as §1, with “Antidepressant” for “Antineuroinflammatory”, “oxidative stress by measuring increase in SOD” for “TNFalpha”, “cerebral cortex” for “serum”; assay type: functional, organism-based; settings: dose 6-12 mg/kg, time 2.0 weeks
[17] = tested on: Mus musculus; experiment: as §2, with “caspase-3” for “caspase-9”; assay type: functional, organism-based; settings: dose 6-24 mg/kg, time 2.0 weeks
[18] = tested on: Mus musculus; experiment: as §1, with “Antidepressant” for “Antineuroinflammatory”, “oxidative stress by measuring increase in GSH” for “TNFalpha”, “cerebral cortex” for “serum”; assay type: functional, organism-based; settings: dose 6-12 mg/kg, time 2.0 weeks
[19] = Tmax in male ICR mouse at 1 mg/kg, iv measured upto 480 mins by LC-MS/MS analysis; assay type: ADME, organism-based; settings: in vivo
[20] = Drug concentration in male ICR mouse brain at 1 mg/kg, iv measured after 60 mins by LC-MS/MS analysis; assay type: ADME, organism-based; settings: read-out: Ct
[21] = tested on: Mus musculus; experiment: (§3) Antidepressant activity in ICR mouse model of chronic unpredictable mild stress assessed as reduction in sphingomyelin level in hippocampus at 6 to 12 mg/kg, ip administered once a day for 1 week post 8 week of chronic unpredictable mild stress and measured after 1 week by ELISA; assay type: functional, organism-based; settings: dose 6-12 mg/kg, time 2.0 weeks
[22] = tested on: Mus musculus; experiment: Improvement in depression-like behavior in ICR mouse model of chronic unpredictable mild stress assessed as increase in total distance traveled in center at 6 to 24 mg/kg, ip administered once a day for 10 days post 8 week of chronic unpredictable mild stress by open field test; assay type: functional, organism-based; settings: dose 6-24 mg/kg, time 10.0 day
[23] = tested on: Mus musculus; experiment: Antidepressant activity in ICR mouse model of chronic unpredictable mild stress assessed as reduction in sphingomyelin level in hippocampus at 12 mg/kg, ip administered once a day for 1 week post 8 week of chronic unpredictable mild stress and measured after 1 week by ELISA; assay type: functional, organism-based; settings: time 2.0 weeks
[24] = Half life in male ICR mouse at 10 mg/kg, ip measured upto 480 mins by LC-MS/MS analysis; assay type: ADME, organism-based; settings: in vivo
[25] = Metabolic stability in human liver microsomes assessed as half life at 1 uM incubated for 60 mins by LC-MS/MS analysis; assay type: ADME, Microsome
[26] = Ratio of drug concentration in male ICR mouse brain to plasma at 1 mg/kg, iv measured after 60 mins by LC-MS/MS analysis; assay type: ADME, organism-based; settings: read-out: BPR
[27] = Drug concentration in male ICR mouse brain at 1 mg/kg, iv measured after 30 mins by LC-MS/MS analysis; assay type: ADME, organism-based; settings: read-out: Ct
[28] = Drug concentration in male ICR mouse plasma at 1 mg/kg, iv measured after 60 mins by LC-MS/MS analysis; assay type: ADME, organism-based
[29] = Observed apparent volume of distribution in male ICR mouse at 1 mg/kg, iv measured upto 480 mins by LC-MS/MS analysis; assay type: ADME, organism-based; settings: in vivo, 8 h
[30] = tested on: Mus musculus; experiment: as §3, with “oxidative stress by measuring reduction in MDA” for “sphingomyelin”, “cerebral cortex” for “hippocampus”; assay type: functional, organism-based; settings: dose 6-12 mg/kg, time 2.0 weeks
[31] = Observed clearance in male ICR mouse at 1 mg/kg, iv measured upto 480 mins by LC-MS/MS analysis; assay type: ADME, organism-based; settings: in vivo, 8 h
[32] = tested on: Mus musculus; experiment: Antidepressant activity in ICR mouse model of chronic unpredictable mild stress assessed as reduction in ceramide level in cerebral cortex at 6 to 12 mg/kg, ip administered once a day for 1 week post 8 week of chronic unpredictable mild stress and measured after 1 week by ELISA; assay type: functional, organism-based; settings: dose 6-12 mg/kg, time 2.0 weeks
[33] = Metabolic stability in human liver microsomes assessed as intrinsic clearance at 1 uM incubated for 60 mins by LC-MS/MS analysis; assay type: ADME, Microsome; settings: read-out: CLH
[34] = tested on: SH-SY5Y; experiment: Neuroprotective activity against corticosterone induced human SH-SY5Y cells assessed as protection against corticosterone induced cell damage measured after 24 hrs by CCK-8 assay; assay type: functional, cell-based; settings: dose 5-20 µM
[35] = species on record: Mus musculus; settings: ICR, dose 6-24 mg/kg, route ip, time 2.0 weeks
Description: In vivo inhibition of ASM in ip dosed ICR mouse model of chronic unpredictable mild stress assessed as reduction in ASM activity in hippocampus administered once a day for 1 week post 8 week of chronic unpredictable mild stress and measured after 1 week by fluorescence based analysis

[36] = species on record: Mus musculus; settings: ICR, dose 6-12 mg/kg, route ip, time 2.0 weeks
Description: In vivo inhibition of ASM in ICR mouse model of chronic unpredictable mild stress assessed as increase in 5-HT uptake in hippocampus at 6 to 12 mg/kg, ip administered once a day for 1 week post 8 week of chronic unpredictable mild stress and measured after 1 week by ELISA

[37] = Ratio of drug concentration in male ICR mouse brain to plasma at 1 mg/kg, iv measured after 30 mins by LC-MS/MS analysis; assay type: ADME, organism-based; settings: read-out: BPR
[38] = tested on: Mus musculus; experiment: Antidepressant activity in ip dosed ICR mouse model of chronic unpredictable mild stress assessed as reduction in sphingosine-1-phosphate level in hippocampus administered once a day for 1 week post 8 week of chronic unpredictable mild stress and measured after 1 week by ELISA; assay type: functional, organism-based; settings: dose 6-12 mg/kg, time 2.0 weeks
[39] = tested on: Mus musculus; experiment: Antidepressant activity in ICR mouse model of chronic unpredictable mild stress assessed as reduction in ceramide level in hippocampus at 6 to 12 mg/kg, ip administered once a day for 1 week post 8 week of chronic unpredictable mild stress and measured after 1 week by ELISA; assay type: functional, organism-based; settings: dose 6-12 mg/kg, time 2.0 weeks
[40] = tested on: Mus musculus; experiment: as §2, with “in” for “in ip dosed”, “increase” for “reduction”, “BDNF” for “caspase-9”, “hippocampus at 6 to 24 mg/kg, ip” for “hippocampus”; assay type: functional, organism-based; settings: dose 6-24 mg/kg, time 2.0 weeks
[41] = tested on: Mus musculus; experiment: Antineuroinflammatory activity in ip dosed ICR mouse model of chronic unpredictable mild stress assessed as reduction in IL-6 level in serum administered once a day for 1 week post 8 week of chronic unpredictable mild stress and measured after 1 week by ELISA; assay type: functional, organism-based; settings: dose 6-12 mg/kg, time 2.0 weeks
[42] = tested on: SH-SY5Y; experiment: Neuroprotective activity against corticosterone induced human SH-SY5Y cells assessed as protection against corticosterone induced morphological changes measured after 24 hrs; assay type: functional, cell-based; settings: dose 5-20 µM
[43] = tested on: Mus musculus; experiment: Antidepressant activity in ip dosed ICR mouse model of chronic unpredictable mild stress assessed as reduction in sphingosine-1-phosphate level in cerebral cortex administered once a day for 1 week post 8 week of chronic unpredictable mild stress and measured after 1 week by ELISA; assay type: functional, organism-based; settings: dose 6-12 mg/kg, time 2.0 weeks
[44] = AUC (0 to infinity) in male ICR mouse at 10 mg/kg, ip measured upto 480 mins by LC-MS/MS analysis; assay type: ADME, organism-based; settings: in vivo
[45] = Cmax in male ICR mouse at 1 mg/kg, iv measured upto 480 mins by LC-MS/MS analysis; assay type: ADME, organism-based; settings: in vivo
[46] = tested on: Mus musculus; experiment: Antineuroinflammatory activity in ip dosed ICR mouse model of chronic unpredictable mild stress assessed as reduction in IL-1beta level in serum administered once a day for 1 week post 8 week of chronic unpredictable mild stress and measured after 1 week by ELISA; assay type: functional, organism-based; settings: dose 6-12 mg/kg, time 2.0 weeks
[47] = tested on: Mus musculus; experiment: Improvement in depression-like behavior in ICR mouse model of chronic unpredictable mild stress assessed as reduction in immobility time at 6 to 24 mg/kg, ip administered once a day for 10 days post 8 week of chronic unpredictable mild stress by forced swim test; assay type: functional, organism-based; settings: dose 6-24 mg/kg, time 10.0 day
[48] = Drug concentration in male ICR mouse plasma at 1 mg/kg, iv measured after 30 mins by LC-MS/MS analysis; assay type: ADME, organism-based
[49] = tested on: Mus musculus; experiment: Antidepressant activity in ICR mouse model of chronic unpredictable mild stress assessed as reduction in sphingomyelin level in cerebral cortex at 6 to 12 mg/kg, ip administered once a day for 1 week post 8 week of chronic unpredictable mild stress and measured after 1 week by ELISA; assay type: functional, organism-based; settings: dose 6-12 mg/kg, time 2.0 weeks
[50] = Half life in male ICR mouse at 1 mg/kg, iv measured upto 480 mins by LC-MS/MS analysis; assay type: ADME, organism-based; settings: in vivo, 8 h

With `O=C(NO)c1cc(-c2ccc(Br)cc2)n(-c2ccc(Cl)cc2)n1` the Activity [1] was “Dose-Dependent Effect”, the Cmax [2] was 4200 ng/mL and the MRT inf [3] was 52.8 min. The bioavailability [4] was 39.6%, the AUC(0-t) at 8 h [5] was 3640 ng·h/mL and the MRT inf [6] was 15 min. For the same molecule, the viability [7] was > 78%, the AUC [8] was 928.07 ng·h/mL and the Activity [9] was “Non-Toxic”. The Activity [10] was “Toxic”, the AUC(0-t) at 8 h [11] was 921 ng·h/mL and the Activity [12] was “Active”. The Activity [13] was “Dose-Dependent Effect”, the Activity [14] was “Active” and the Activity [15] was “Active”. For the same molecule, the Activity [16] was “Dose-Dependent Effect”, the Activity [17] was “Dose-Dependent Effect” and the Activity [18] was “Dose-Dependent Effect”. For the same molecule, the Tmax [19] was 15 min, the concentration at 1 h [20] was 31.9 ng/mL and the Activity [21] was “Active”. For the same molecule, the Activity [22] was “Active”, the Activity [23] was “Active” and the half-life [24] was 50.4 min. It also gave a half-life at 1 µM [25] of 111 min, a Kp at 1 h [26] of 0.57 and a concentration at 0.5 h [27] of 83.1 ng/mL. For the same molecule, the concentration at 1 h [28] was 55.6 ng/mL, the Vz [29] was 3292.01 mL/kg and the Activity [30] was “Active”. For the same molecule, the CL [31] was 2752.79 mL/kg/h, the Activity [32] was “Active” and the microsomal CLint at 1 µM [33] was 15.6 µL/min/mg. For the same molecule, the Activity [34] was “Dose-Dependent Effect”, the inhibition [35] was “Dose-Dependent Effect” and the inhibition [36] was “Active”. The Kp at 0.5 h [37] was 0.37, the Activity [38] was “Dose-Dependent Effect” and the Activity [39] was “Active”. For the same molecule, the Activity [40] was “Active”, the Activity [41] was “Dose-Dependent Effect” and the Activity [42] was “Dose-Dependent Effect”. For the same molecule, the Activity [43] was “Dose-Dependent Effect”, the AUC(0-inf) [44] was 3650 ng·h/mL and the Cmax [45] was 2590 ng/mL. The Activity [46] was “Dose-Dependent Effect”, the Activity [47] was “Active” and the concentration at 0.5 h [48] was 223 ng/mL. For the same molecule, the Activity [49] was “Active” and the t1/2 [50] was 18.6 min.
